# Measurements reported in patent US8968715B2, “Drug delivery systems for photodynamic therapy” (The University of British Columbia, priority 2000, dated 2015).
# “Also recorded” adds a separate entry of the source.
# How the values were obtained:
# [1] = BPD-MA drug loading and formulation stability in Pluronic copolymers (melt method, absorbance); assay type: physicochemical; details: 3 days storage at room temperature
# Protocol: In this experiment the use of copolymers for drug loading capability and formulation stability over a 3 day period was examined using the photosensitizer drug BPD-MA. The criteria for choosing the copolymers were based on the solution and viscosity characteristics described in Example 1. The ‘melt’ method is used for the preparation and screening of the large number of samples and is described as follows. At temperatures above 50° C., poloxamers are in their molten state and serve as excellent solvents for tetrapyrrolic compounds, thus avoiding the need for pre-dissolution of drugs in organic solvents. 5 mg of BPD-MA was dissolved with the aid of vortex mixing and sonication at 55° C. into the polymer ‘melts’ to give a final concentration of 5% to 20% w/v of the respective Pluronic. To each melt sample, 2.5 ml of PBS was added to give a final BPD-MA concentration of 2 mg/ml. Samples were allowed to equilibrate to room temperature before drug loading was determined at time zero (T0). 1 ml of suspension was removed for centrifugation (Microfuge, 14,000 rpm, 30 min), and the rest filtered through 0.2 μm filters (Millipore). The filtrate was diluted 1:100 in PBS and the absorbance at 690±3 nm determined (uv-vis spectrophotometer Beckman DU-6401). This procedure was repeated 72 hours later following storage at room temperature and the absorbance measurement (T72).
# [2] = system: M1 rhabdomyosarcoma tumor cells; assay: Tumor recurrence after PDT in tumor mouse model; assay type: in vivo, DBA/2 mouse
# Protocol: Photosensitizer formulations were prepared in 10% w/v Pluronics as described in Example 4. BPD-MA was formulated in F127. B-ring compounds B-EA6 and B-B3, were prepared in P123 due to insufficient drug loading in F127. Liposomal BPD-MA formulation was Verteporfin™ and B-ring compounds were formulated in the same lipid composition. Where DMSO/plasma preparations were made, the DMSO dissolved drug was added directly to mouse plasma and the drug association with different plasma components was observed.
# In these experiments the tumor model used was the DBA/2 mouse (males) inoculated intradermally with M1 rhabdomyosarcoma tumor cells (M1, ATCC. When tumors reached a diameter of 4-6 mm, the mice (n=10, unless other wise stated) were treated with photodynamic therapy (PDT). PDT involved intravenous injection of the formulated drug in 0.2 mL volume of PBS. This was followed by exposure of the tumor region to laser light (Argon pumped dye laser (5W), 690 nm, 50 J/cm^2) 15 min later. Animals were then monitored for tumor recurrence over a 20 day period post treatment.
# [3] = Drug incorporation into 10% w/v Pluronic P123; assay type: physicochemical; details: for Drug concentration formulated in 10% P123: 10% P123, non-optimized systems
# Protocol: Using formulation methods described in Example 5, the aim was to incorporate 2 mg/ml of B-B3 into 10% w/v P123. It was shown by this method that the B-B3 can typically be incorporated at ˜1.8 mg/ml drug (based on absorbance readings and a molar extinction coefficient of 30425) 24 h post-hydration. This translates to approximately 10% drug loss. Unincorporated drug undergoes aggregation in aqueous solutions, and is characterized by the appearance of a 730 nm absorbance peak. Although the formulations can be made completely aggregate free by centrifugation or sterile filtration through 0.2 μm filters, this adds another step in the manufacturing process, which can be avoided by increasing the copolymer:drug ratio.
# [4] = system: L1210 cells; assay: Cellular uptake of photosensitizer formulations; assay type: cell-based; details: 3 μg/ml, FIG. 1
# Protocol: The protocol for setting up the cell cultures and conditions for the cellular assay essentially followed Richter et al. (Proc. SPIE, 2078: 293-304, September 1993). L1210 cells in DMEM and 10% FBS (single experiment, 3 sets) were incubated with the formulations at a concentration of 3 μg/ml and examined for uptake in the cells over time. Cells were recovered by centrifugation, the pellet briefly rinsed, and the cells lysed by freeze thawing in the presence of 2% Triton X-100®. An equal volume of methanol was added and fluorescence was read at 694 nm (λex 440 nm).
# [5] = Deposition of BPD-MA / F127 formulations on lactose crystals: hydration and filtration; assay type: physicochemical
# Protocol: In this experiment the deposition of the photosensitizer BPD-MA with the block copolymer Pluronic® F127 onto the sugar lactose was examined. Formulations containing 5% (w/v) and a 10% (w/v) F127 were tested. 0.5 g lactose and 10 mg BPD-MA were added to two rotary evaporation flasks. A stock solution of […] F127 was prepared in CH2Cl2. 1.25 ml (for 5% w/v) and 2.5 ml (for 10% w/v) F127 stock solution was added to each flask. The final volume in each flask was made up to 5.0 ml with CH2Cl2 and the components mixed to ensure complete dissolution. The solvent was removed by rotary evacuation at 50° C., and the flask left under vacuum for a further 15 min at 23° C. Micro-thin film deposits were scraped from the walls and hydrated in 5 ml water at 50° C. The formulations were filtered twice using 0.2 μm syringe filters (Acrodisc, polysulphone).
# The experimental conditions and components were the same as Example 15 with the exception of the following changes. A stock of 0.2 mg/ml F127 was prepared in ethanol and 0.65 ml (2.5% w/v) and 1.25 ml (5% w/v) of the stock solution was added to two flasks. The final volume was made up to 5.0 ml with ethanol and the contents dissolved with warming. Ethanol was removed by rotary evacuation at 50° C., left under vacuum for 15 min at room. Micro-thin film deposits were scraped from the walls and dissolved in 5 ml water at 50° C. as previously described. […]
# [6] = pH studies of formulation stability; assay type: physicochemical; details: poloxamer formulations
# Description: This necessitates hydration of the solid drug-polymer with a very mild buffer to counteract acidification which occurs upon use of sterile packed distilled water as commonly practiced in clinical settings. Behavior of poloxamers is unaffected by pH, and the use of buffers would be entirely dependent on ionizable groups present on the drug substance.
# [7] = system: MRL/lpr mouse; assay: Transcutaneous PDT treatment of arthritis, ankle width; assay type: in vivo; details: 0.5 mg/kg i.v.
# Protocol: Arthritis in the MRL/lpr mouse strain was enhanced by giving 2 intradermal injections (thoracic and inguinal sites) with 0.05 ml of complete Freunds adjuvant containing 10 mg/ml heat-inactivated M. tuberculosis. PDT was given on days 0, 10 and 20 following CFA treatment. PDT was carried out as follows; 3 groups of MRL/lpr mice were injected intravenously with B-B3 at 0.5 mg/kg (copolymer or liposomal formulations), after which they were protected from light. The third group was injected with copolymer alone at an equivalent copolymer concentration to that found in the formulation. An hour later, they were exposed to light at 80 J/cm^2 for […] (8 mW/cm^2).
# Ankle width measurements were taken every 5 days prior to PDT treatment.
Molecule,Stability of BPD-MA formulations in Pluronic [1],"Percent (%) Mice Tumor Free ([2]; Liposomal, 1.0 mg/kg, Day 7) [%]","Percent (%) Mice Tumor Free ([2]; Liposomal, 1.0 mg/kg, Day 14) [%]","Percent (%) Mice Tumor Free ([2]; Liposomal, 1.0 mg/kg, Day 20) [%]","Percent (%) Mice Tumor Free ([2]; Pluronic F127, 1.0 mg/kg, Day 7) [%]","Percent (%) Mice Tumor Free ([2]; Pluronic F127, 1.0 mg/kg, Day 14) [%]","Percent (%) Mice Tumor Free ([2]; Pluronic F127, 1.0 mg/kg, Day 20) [%]","Likelihood to remain tumor free, poloxamer formulation compared to liposomal BPD-MA ([2]; end of the 20 day period)",Drug concentration formulated in 10% P123 [3],Incubation time at which uptake saturation level is achieved ([4]; liposomal formulation) [min],Incubation time of 50% uptake ([4]; liposomal formulation),"Filtration through 0.2 μm filter ([5]; 2.5% and 5% w/v F127 on lactose, ethanol as solvent)","Drug loss on filtration through 0.2 μm filters ([5]; 5% w/v and 10% w/v F127 on lactose, CH2Cl2 as solvent)",PDT efficacy in tumor model ([2]; plasma/DMSO preparation),pH dependence of formulation stability [6],Drug incorporated / retained 24 h post-hydration ([3]; aim 2 mg/ml into 10% w/v P123) [mg/mL],"Control of joint inflammation (increase in ankle swelling) ([7]; copolymer formulation, 80 J/cm^2, FIG. 2)","Control of joint inflammation (increase in ankle swelling) ([7]; liposomal formulation, after day 25)","Control of joint inflammation (increase in ankle swelling) ([7]; liposomal formulation, earlier part of the study, FIG. 2, 0.5 mg/kg)",Incubation time of 50% uptake level ([4]; copolymer Pluronic P123 formulation)
benzoporphyrin derivative monoacid ring A [BPD-MA],no loss of stability,100,100,30,100,60,60,twice as likely to remain tumor free,≤ 4000 µg/mL,30,approximately 5 min,no resistance,no drug loss,,,,,,,
C=Cc1c(C)c2cc3nc(cc4[nH]c(cc5nc(cc1[nH]2)C1(C)C5=CC=C(C(=O)O)C1C(=O)OC)c(C)c4CCC(=O)OC)C(CCC(=O)OC)=C3C (stereo not shown) [B-B3],,,,,,,,,approximately 1.8 mg/ml,,,,,completely ineffective for PDT purposes,detrimental to formulation stability,~1.8,highly effective in controlling the inflammation,exacerbation of the inflammatory condition,improved suppression of the inflammation compared to controls; also recorded: better suppression of the inflammation compared to the controls,close to ‘zero’ incubation time
C=Cc1c(C)c2cc3nc(cc4[nH]c(cc5nc(cc1[nH]2)C1(C)C5=CC=C(C(=O)OC)C1C(=O)OC)c(C)c4CCC(=O)OCCO)C(CCC(=O)OCCO)=C3C (stereo not shown) [B-EA6],,,,,,,,,,,,,,,does not display any pH-dependency,,,,,
